Tests used:
[1] = biological target: T1, MAO-B human-recombinant (Homo sapiens, UniProt P27338); experiment: MAO-B assay (MAO-Glo); type: biochemical; conditions: read-out: MAO B binding
T1 construct: purchased Sigma-Aldrich M7441
T1 sequence (P27338 1-520): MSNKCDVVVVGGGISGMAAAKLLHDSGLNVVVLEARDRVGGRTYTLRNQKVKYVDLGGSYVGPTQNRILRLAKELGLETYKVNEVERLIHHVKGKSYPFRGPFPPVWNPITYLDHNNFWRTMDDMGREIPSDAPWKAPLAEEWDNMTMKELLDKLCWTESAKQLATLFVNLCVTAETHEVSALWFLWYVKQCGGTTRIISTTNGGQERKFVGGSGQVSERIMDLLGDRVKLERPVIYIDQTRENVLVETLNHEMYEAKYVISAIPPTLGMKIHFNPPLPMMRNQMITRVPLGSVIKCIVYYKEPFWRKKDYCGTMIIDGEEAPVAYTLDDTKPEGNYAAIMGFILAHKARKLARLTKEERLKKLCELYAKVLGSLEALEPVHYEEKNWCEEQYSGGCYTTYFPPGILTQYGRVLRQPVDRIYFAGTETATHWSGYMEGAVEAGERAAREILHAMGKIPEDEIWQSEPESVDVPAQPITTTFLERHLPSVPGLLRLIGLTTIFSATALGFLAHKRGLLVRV
Method: Compounds were tested for their capacity to modulate MAO-B activity within the MAO-Glo™ Assay (Promega, Cat.# V1402). In each well of a 96-well plate, 12.5 μl of 4×MAO Substrate solution (end-concentration in assay: 4 μM) were mixed with 12.5 μl of a 4× solution of the corresponding test compound (end-concentrations ranged from 10 μM to 1.37 nM). In the absence of a test compound (i.e. to gauge the total MAO-B activity), the corresponding volume of MAO-B Reaction Buffer (100 mM HEPES (pH 7.5), 5% glycerol, 10% dimethyl sulphoxide) was added. To initiate the MAO reaction, 25 μl of 2×MAO-B enzyme solution (MAO-B human—recombinant, Sigma-Aldrich, Cat.# M7441; 1 μg MAO-B enzyme/25 μl MAO-B Reaction Buffer) were added per well and mixed briefly. For negative control reactions, 25 μl of MAO-B Reaction Buffer were added. Thereafter the plate was incubated at room temperature for 1 hour, following which, 50 μl of reconstituted Luciferin Detection Reagent were added per well and mixed briefly. The plate was then incubated at room temperature for 20 minutes to generate and stabilize the luminescent signal. The luminescent signal was subsequently measured and recorded on the TopCountNXT™ luminescence counter (PerkinElmer). Data were analyzed and graphs were prepared using the Graphpad Prism 6 software.

[2] = biological target: T2, MAO-A human-recombinant (Homo sapiens, UniProt P21397); experiment: Monoamine oxidase A (MAO-A) assay (MAO-Glo); type: biochemical; conditions: read-out: MAO A binding
T2 construct: purchased Sigma-Aldrich M7316
T2 sequence (P21397 1-527): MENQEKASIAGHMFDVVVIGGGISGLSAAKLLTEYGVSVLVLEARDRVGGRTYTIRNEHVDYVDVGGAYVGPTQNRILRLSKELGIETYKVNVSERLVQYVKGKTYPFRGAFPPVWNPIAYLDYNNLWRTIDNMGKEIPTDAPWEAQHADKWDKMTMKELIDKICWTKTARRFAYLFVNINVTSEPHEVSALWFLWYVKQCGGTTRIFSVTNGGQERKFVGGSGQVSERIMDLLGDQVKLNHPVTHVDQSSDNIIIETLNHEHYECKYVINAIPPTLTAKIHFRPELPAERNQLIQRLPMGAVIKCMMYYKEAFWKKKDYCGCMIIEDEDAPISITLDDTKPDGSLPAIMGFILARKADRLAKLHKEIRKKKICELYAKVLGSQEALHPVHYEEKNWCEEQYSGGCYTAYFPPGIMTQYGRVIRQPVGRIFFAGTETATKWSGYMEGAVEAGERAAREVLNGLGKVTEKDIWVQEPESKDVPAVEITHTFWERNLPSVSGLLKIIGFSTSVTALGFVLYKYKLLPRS
Method: Monoamine Oxidase A (MAO-A) Assay
Compounds were tested for their capacity to modulate MAO-A activity within the MAO-Glo™ Assay (Promega, Cat.# V1402). In each well of a 96-well plate, 12.5 μl of 4×MAO Substrate solution (end-concentration in assay: 40 μM) were mixed with 12.5 μl of a 4× solution of the corresponding test compound (end-concentrations ranged from 10 μM to 1.37 nM). In the absence of a test compound (i.e. to gauge the total MAO-A activity), the corresponding volume of MAO Reaction Buffer (100 mM HEPES (pH 7.5), 5% glycerol) was added. To initiate the MAO reaction, 25 μl of 2×MAO-A enzyme solution (MAO-A human-recombinant, Sigma-Aldrich, Cat.# M7316; 1 μg MAO-A enzyme/25 μl MAO Reaction Buffer) were added per well and mixed briefly. For negative control reactions, 25 μl of MAO Reaction Buffer were added. Thereafter the plate was incubated at room temperature for 1 hour, following which, 50 μl of reconstituted Luciferin Detection Reagent were added per well and mixed briefly. The plate was then incubated at room temperature for 20 minutes to generate and stabilize the luminescent signal. The luminescent signal was subsequently measured and recorded on the TopCountNXT™ luminescence counter (PerkinElmer). Data were analyzed and graphs were prepared using the Graphpad Prism 6 software.

[3] = biological target: Tau in human Alzheimer disease brain homogenate (stage Braack V), [18F]-labeled Tau-Reference binder (Homo sapiens, UniProt P10636); experiment: Tau radio-binding competition assay; conditions: competition with [18F]-labeled Tau-Reference binder, human AD brain homogenate
Method: Tau Radio-Binding Competition Assay
20 μg of human Alzheimer disease brain homogenate (stage Braack V) was incubated with a dilution series of each test compound (1000 to 0.06 nM) in the presence of 800 Bq of [^18F]-labeled Tau-Reference binder. The samples were shaken at 110 rpm for 45 min at 37° C. Samples were then filtered through GF/B 96 well filter plates and two times washed with 300 μl assay buffer (PBS containing 0.1% BSA and 2% DMSO). Thereafter, filter plates were sealed and a Fuji Film Imaging Plate (BAS-SR2025) were placed on top. The imaging plate was analyzed the next day using a Fuji Film BAS-5000. Non-specific signal was determined with samples containing [^18F]-labeled Tau-Reference binder in the presence of assay buffer missing brain substrate and competitor. Specific binding was calculated by subtracting the non-specific signal from the measured sample signal. The unblocked [^18F]-labeled Tau-Reference binder signal was defined as total binding. IC50 values were calculated by Prism V6 (GraphPad) using total binding as 100%.

Tau in human Alzheimer disease brain homogenate (stage Braack V), [18F]-labeled Tau-Reference binder, sequence (P10636 623-695 limits assumed): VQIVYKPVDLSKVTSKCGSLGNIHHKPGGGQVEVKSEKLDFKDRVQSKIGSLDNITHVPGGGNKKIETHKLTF

Row | Compound | IC50 [1] [µM] | IC50 [2] [µM] | IC50 [3] [µM]
1 | F[C@H]1CCN(c2ccc3c(n2)[nH]c2ccncc23)C1 [Example 1] | > 1 | > 1 | 0.006
2 | FCCOC1CCN(c2ccc3c(n2)[nH]c2ccncc23)CC1 [Example 2] | > 1 | > 6 | 0.004
3 | FCCOCCOC1CCN(c2ccc3c(n2)[nH]c2ccncc23)CC1 [Example 5] | > 1 | > 2 | 0.006
4 | F[C@@H]1CCN(c2ccc3c(n2)[nH]c2ccncc23)C1 [Example 6] | > 1 | 0.94 | 0.007
5 | OC(CF)COC1CCN(c2ccc3c(n2)[nH]c2ccncc23)CC1 (stereo not shown) [Example 7] | > 1 | – | 0.003
6 | OC1(CF)CCN(c2ccc3c(n2)[nH]c2ccncc23)CC1 [Example 8] | > 1 | 0.94 | 0.04
7 | FC1CC2(C1)CN(c1ccc3c(n1)[nH]c1ccncc13)C2 [Example 12] | > 1 | 0.57 | 0.013
8 | FCCOC1CC2(C1)CN(c1ccc3c(n1)[nH]c1ccncc13)C2 [Example 13] | > 1 | > 2 | 0.016
9 | [2H]C([2H])(F)CCOC1CCN(c2ccc3c(n2)[nH]c2ccncc23)CC1 [Example 19] | – | – | 0.0023
10 | FCCOCCC1CCN(c2ccc3c(n2)[nH]c2ccncc23)CC1 [Example 21] | – | – | 0.0015
11 | FCC(F)COC1CCN(c2ccc3c(n2)[nH]c2ccncc23)CC1 (stereo not shown) [Example 24] | – | – | 0.008
12 | F[C@@H]1CCCN(c2ccc3c(n2)[nH]c2ccncc23)C1 [Example 25] | – | 1.02 | 0.0054
13 | F[C@H]1CCCN(c2ccc3c(n2)[nH]c2ccncc23)C1 [Example 26] | – | – | 0.016
14 | FC1CCN(c2ccc3c(n2)[nH]c2ccncc23)CC1 [Example 27] | – | – | 0.003
15 | FC1CC2(CCN(c3ccc4c(n3)[nH]c3ccncc34)CC2)C1 [Example 28] | – | – | 0.0052
